According to patent publication US20250144187A1, “COMBINATION OF HYDROLASES AND ANTI-MICROORGANISM DRUGS AND USES THEREOF” (CENTRE FOR EYE AND VISION RESEARCH LIMITED, priority 2023, published 2025):

Legend:
[1] = test system: MRSA in ARPE-19 cells; assay: Cell-based infection model, cefdinir/lysozyme; conditions: 0.25 μg/ml cefdinir combined with 0.5 mg/ml lysozyme
[2] = test system: MRSA; assay: ATP, NAD+/NADH and pyruvate levels, tedizolid phosphate/lysozyme; format: cell-based, Staphylococcus aureus; conditions: combination therapy for 1 hour
Procedure: 13) ATP, NAD^+/NADH and pyruvate levels. According to the described method [Liu. Y et al., Adv. Sci. 7, 1902227(2020)], mid-log-phase MRSA with the OD600 of 0.4 to 0.6 was treated with lysozyme, tedizolid phosphate or their combination at different concentrations. Those without any treatment served as control group. After 1 hour incubation at 37° C. all bacteria we collected and then washed by cold PBS for 3 times. […] Then, 75 μl of each supernatant was incubated 25 μl of reaction I, followed by continuous incubation with 125 μl of reaction II. By recording the absorbance at 520 mu, the pyruvate level in each sample was figured out according to the standard formula. The intensity in control group was defined as 100% and others were normalized.
Then, 20 si of each supernatant was added white 96-well plate pre-reactivated by 100 μl of ATP test solution (Beyotime Biotechnology, China), followed by luminometer measurement [Liu, Y et al., Adv. Sci 7, 1902227 (2020)]. To analyze the intracellular NAD^+ and NADH levels [Xue, C et al., Front. Pharmacol. 12, 600296 (2021)], each lysis supernatant was divided into two tubes. One tube was heated at 60° C. for 30 minutes in PCR machine to decompose NAD^+ if had. Then, this tube was further centrifuged at 18,000 g at 4° C. for 20 minutes to collect the supernatant. After that, 20 μl of supernatant from heated or unheated group was added white 96-well plate pre-reactivated by 90 μl/well of alcohol dehydrogenase solution (Beyotime Biotechnology, China) for 10 minutes incubation at 37° C. in the prevention of light, Next, 10 μl of staining solution (Beyotime Biotechnology, China) was added to react with product in previous reaction. After 30 minutes at 37° C. in the prevention of light, orange formazan was observed and then the absorbance at 450 nm was recorded. Intensities of those […] heat treatment indicated the levels of NADH+NAD^+ and NADH itself, respectively. Finally, according to the standard formula, the intracellular levels of NAD^+, NADH and their ratio were figured out. All results were expressed as average±SD. […]

SMILES	drop of bacterial load in infected ARPE-19 cells [1]	bacterial load in infected ARPE-19 cells ([1]; MOI 50)	decrease in the level of pyruvate [2] [%]	level of ATP [2]	ratio of NAD+/NADH ([2]; increased from 8.84±1.89)
C=CC1=C(C(=O)O)N2C(=O)[C@@H](NC(=O)/C(=N\O)c3csc(N)n3)[C@H]2SC1 [cefdinir, Cefdinir]	10^2 fold	10^3 CFU/ml			
Cn1nnc(-c2ccc(-c3ccc(N4C[C@H](COP(=O)(O)O)OC4=O)cc3F)cn2)n1 [tedizolid phosphate, Tedizolid Phosphate]			> 40	higher levels of ATP	18.43±4.42
